Results from the NIST ThermoML archive (doi:10.1016/j.jct.2013.08.022).
Where “and” joins values, the source holds several entries; their conditions need not be identical. Equal entries are not always repeated.

Conditions: Crystal, Closed cell (Static) method

c1ccccc1 [benzene]
Conditions | vapor or sublimation pressure
233.2 K | 0.09891 kPa and 0.09902 kPa and 0.09885 kPa
235.7 K | 0.1277 kPa
238.21 K | 0.1641 kPa
240.7 K | 0.2093 kPa and 0.2094 kPa and 0.2095 kPa
243.2 K | 0.2655 kPa and 0.2656 kPa
245.68 K | 0.3351 kPa and 0.3352 kPa and 0.335 kPa
248.18 K | 0.4206 kPa and 0.4205 kPa
250.68 K | 0.5253 kPa and 0.5257 kPa
253.17 K | 0.6533 kPa and 0.6532 kPa and 0.6543 kPa
255.67 K | 0.8095 kPa and 0.8096 kPa and 0.8092 kPa
258.16 K | 0.9997 kPa and 0.9995 kPa and 0.9994 kPa
260.68 K | 1.231 kPa and 1.229 kPa
